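The compound was tested at five concentrations on cells cultured in 96-well plates, with a 48-hour exposure period. Abbreviation: GI50, concentration required for 50% inhibition of growth.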 Calls of active or inactive are those of the source. No stated cut-off is given here; in the data, active = GI50 up to about 1.1 µM and inactive = higher.
Key:
Experiment in all cases: growth of human tumour cells (NCI), 48 h
A498 = system: A498
CCRF-CEM = system: CCRF-CEM
DU-145 = system: DU-145
HCT-116 = system: HCT-116
HCT-15 = system: HCT-15
LOX IMVI = system: LOX IMVI
M14 = system: M14
MDA-MB-435 = system: MDA-MB-435
MDA-N = system: MDA-N
NCI-H460 = system: NCI-H460
OVCAR-4 = system: OVCAR-4
OVCAR-5 = system: OVCAR-5
SF-295 = system: SF-295
SK-MEL-5 = system: SK-MEL-5
SN12C = system: SN12C
SNB-75 = system: SNB-75
SR = system: SR
UACC-257 = system: UACC-257
U-251 = system: U-251
Malme-3M = system: Malme-3M

Measured: GI50

CCCn1c(SC)nc(COC(=O)NC)c1COC(=O)NC
inactive: A498 64 µM | CCRF-CEM > 100 µM | DU-145 > 100 µM | HCT-116 > 100 µM | LOX IMVI > 100 µM | M14 > 100 µM | MDA-MB-435 > 100 µM | MDA-N > 100 µM | NCI-H460 > 100 µM | OVCAR-4 > 100 µM | OVCAR-5 > 100 µM | SF-295 > 100 µM | SK-MEL-5 > 100 µM | SN12C > 100 µM | SNB-75 > 100 µM | SR > 100 µM | UACC-257 > 100 µM
> 100 µM: HCT-15

CC[C@@H]([C@H](O)c1ccccc1Cl)[N+](=O)[O-]
1.33 µM: HCT-15
inactive: A498 > 100 µM | CCRF-CEM 19.2 µM | DU-145 > 100 µM | HCT-116 4.25 µM | LOX IMVI > 100 µM | M14 > 100 µM | MDA-MB-435 25.8 µM | MDA-N 2.35 µM | NCI-H460 > 100 µM | OVCAR-4 > 100 µM | OVCAR-5 > 100 µM | SF-295 > 100 µM | SK-MEL-5 > 100 µM | SN12C > 100 µM | SNB-75 65.6 µM | U-251 > 100 µM | UACC-257 > 100 µM
active: SR 0.324 µM

CC1(C)C2CCC(N)(C2)C1O (stereo not drawn)
> 100 µM: HCT-15
inactive: A498 > 100 µM | CCRF-CEM > 100 µM | DU-145 > 100 µM | HCT-116 > 100 µM | LOX IMVI > 100 µM | M14 > 100 µM | MDA-MB-435 > 100 µM | MDA-N > 100 µM | NCI-H460 > 100 µM | OVCAR-4 > 100 µM | OVCAR-5 > 100 µM | SF-295 > 100 µM | SK-MEL-5 > 100 µM | SN12C > 100 µM | SNB-75 > 100 µM | SR > 100 µM | U-251 > 100 µM | UACC-257 > 100 µM

O=c1[nH]c(-n2[nH]c3c(c2=O)CCCC3)nc(O)c1-c1ccccc1
inactive: A498 > 100 µM | CCRF-CEM > 100 µM | DU-145 > 100 µM | HCT-116 > 100 µM | M14 > 100 µM | MDA-MB-435 > 100 µM | MDA-N > 100 µM | Malme-3M > 100 µM | NCI-H460 > 100 µM | OVCAR-4 > 100 µM | OVCAR-5 > 100 µM | SF-295 > 100 µM | SK-MEL-5 > 100 µM | SN12C > 100 µM | SR > 100 µM | U-251 > 100 µM | UACC-257 > 100 µM
> 100 µM: HCT-15

N#Cc1c(Cl)c2ccccc2n2c1nc1ccccc12
15.2 µM: HCT-15
inactive: A498 > 100 µM | CCRF-CEM 11.2 µM | DU-145 27.7 µM | HCT-116 18.3 µM | LOX IMVI 10.8 µM | M14 19.6 µM | MDA-MB-435 56.1 µM | MDA-N 35 µM | NCI-H460 69.7 µM | OVCAR-4 27.4 µM | OVCAR-5 > 100 µM | SF-295 59.7 µM | SN12C 25.4 µM | SNB-75 60.4 µM | SR 50 µM | U-251 92.7 µM | UACC-257 42.4 µM

CSC1=C(C#N)C(=O)N(c2ccc(Cl)cc2)C(=O)C1C#N (stereo not drawn)
inactive: A498 74.6 µM | CCRF-CEM 44.9 µM | DU-145 > 100 µM | HCT-116 > 100 µM | LOX IMVI > 100 µM | M14 96.4 µM | MDA-MB-435 > 100 µM | MDA-N > 100 µM | Malme-3M > 100 µM | NCI-H460 > 100 µM | OVCAR-4 > 100 µM | OVCAR-5 > 100 µM | SF-295 87.1 µM | SK-MEL-5 > 100 µM | SN12C > 100 µM | SR 15.4 µM | U-251 > 100 µM | UACC-257 > 100 µM
> 100 µM: HCT-15

O=C(O)C1(Cc2ccccc2)Cc2cc3c(cc2C1)CCC3
52.6 µM: HCT-15
inactive: CCRF-CEM 45.1 µM | DU-145 > 100 µM | HCT-116 42.9 µM | LOX IMVI > 100 µM | M14 44.1 µM | MDA-MB-435 > 100 µM | MDA-N > 100 µM | Malme-3M > 100 µM | NCI-H460 86.9 µM | OVCAR-4 > 100 µM | OVCAR-5 > 100 µM | SF-295 > 100 µM | SK-MEL-5 > 100 µM | SN12C > 100 µM | SNB-75 > 100 µM | SR > 100 µM | U-251 66.4 µM | UACC-257 > 100 µM

COC(=O)C(=O)c1c2ccccc2n2ccc3c4ccccc4[nH]c3c12
inactive: CCRF-CEM > 10 µM | DU-145 > 10 µM | HCT-116 > 10 µM | LOX IMVI > 10 µM | M14 > 10 µM | MDA-MB-435 > 10 µM | MDA-N > 10 µM | Malme-3M > 10 µM | NCI-H460 > 10 µM | OVCAR-4 > 10 µM | OVCAR-5 > 10 µM | SF-295 > 10 µM | SK-MEL-5 > 10 µM | SN12C > 10 µM | SNB-75 > 10 µM | SR > 10 µM | U-251 > 10 µM | UACC-257 > 10 µM
> 10 µM: HCT-15

O=c1[nH]c2nc3ccccc3c(=O)n2/c1=C/c1ccccc1
inactive: CCRF-CEM 40.3 µM | DU-145 29 µM | HCT-116 31.1 µM | LOX IMVI 25.2 µM | M14 47.9 µM | MDA-MB-435 21.9 µM | MDA-N 25.6 µM | Malme-3M 38.6 µM | OVCAR-4 > 100 µM | OVCAR-5 > 100 µM | SF-295 > 100 µM | SK-MEL-5 48.9 µM | SN12C 25.1 µM | SNB-75 30.5 µM | SR > 100 µM | U-251 29.9 µM | UACC-257 23.7 µM
29.8 µM: HCT-15

COCOc1cc(OC)c(Br)cc1C/C(=N/O)C(=O)OC
> 100 µM: HCT-15
inactive: CCRF-CEM 37.8 µM | DU-145 > 100 µM | HCT-116 > 100 µM | LOX IMVI 73.5 µM | M14 > 100 µM | MDA-MB-435 29.6 µM | MDA-N 28 µM | Malme-3M 25.5 µM | NCI-H460 71.9 µM | OVCAR-4 52.5 µM | OVCAR-5 > 100 µM | SF-295 > 100 µM | SK-MEL-5 67.8 µM | SN12C > 100 µM | SNB-75 7.6 µM | SR 34.7 µM | U-251 > 100 µM | UACC-257 46.6 µM

CC1=NN(c2cccc(Cl)c2)C2(C1=Cc1ccc(O)cc1)C(Cl)C(=O)N2c1nc2ccccc2s1 (stereo not drawn)
15.5 µM: HCT-15
inactive: A498 13.6 µM | CCRF-CEM 28.6 µM | DU-145 21.5 µM | HCT-116 15.9 µM | LOX IMVI 22.1 µM | M14 24.7 µM | MDA-MB-435 25.1 µM | MDA-N 23.3 µM | NCI-H460 24.9 µM | OVCAR-4 22.6 µM | OVCAR-5 29.4 µM | SF-295 21.5 µM | SK-MEL-5 16.6 µM | SR 19.9 µM | U-251 20 µM | UACC-257 25.5 µM

— ChEMBL document CHEMBL1201862, “PubChem BioAssay data set” (2004)
